In patent US12662490B2, “Heterocyclic compounds” (Hoffmann-La Roche Inc., priority 2019, dated 2026):
pIC50: −log10 of the molar value.

biological target: T1, MAGL (Homo sapiens, UniProt Q99685); assay: 2-AG assay (MAGL inhibitory activity; hydrolysis of 2-arachidonoylglycerol to arachidonic acid followed by mass spectrometry); format: biochemical; settings: 15 min preincubation at RT, 8 μM 2-arachidonoylglycerol, 30 min at RT, RapidFire MS readout
T1 sequence (Q99685 1-303): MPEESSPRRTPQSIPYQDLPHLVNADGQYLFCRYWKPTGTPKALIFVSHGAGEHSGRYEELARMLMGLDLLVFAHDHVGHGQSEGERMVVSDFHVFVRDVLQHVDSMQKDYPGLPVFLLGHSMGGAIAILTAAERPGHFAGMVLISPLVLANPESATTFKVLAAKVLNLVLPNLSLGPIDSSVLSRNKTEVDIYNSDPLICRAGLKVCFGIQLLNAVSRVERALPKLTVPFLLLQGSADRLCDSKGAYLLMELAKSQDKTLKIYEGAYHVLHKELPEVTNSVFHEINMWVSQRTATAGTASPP
Protocol: Compounds were profiled for MAGL inhibitory activity by determining the enzymatic activity by following the hydrolysis of the natural substrate 2-arachidonoylglycerol (2-AG) resulting in arachidonic acid, which can be followed by mass spectrometry. This assay is hereinafter abbreviated “2-AG assay”.
The 2-AG assay was carried out in 384 well assay plates (PP, Greiner Cat #784201) in a total volume of 20 μL. Compound dilutions were made in […] (VWR Chemicals 23500.297) in a polypropylene plate in 3-fold dilution steps to give a final concentration range in the assay from 12.5 μM to […]. 0.25 μL compound dilutions (100% DMSO) were added to 9 μL MAGL in assay buffer (50 mM TRIS (GIBCO, 15567-027), 1 mM EDTA (Fluka, 03690-100 mL), 0.010 (v/v) Tween. After shaking, the plate was incubated for 15 min at RT. To start the reaction, 10 μL 2-arachidonoylglycerol in assay buffer was added. The final concentrations in the assay was […] and 8 μM 2-arachidonoylglyerol. After shaking and 30 min incubation at RT, the reaction was quenched by the addition of 40 μL of ACN containing 4 μM of d8-arachidonic acid. The amount of arachidonic acid was traced by an online SPE system (Agilent Rapidfire) coupled to a triple quadrupole mass spectrometer (Agilent 6460). A C18 SPE cartridge (G9205A) was used in an ACN/water liquid setup. The mass spectrometer was operated in negative electrospray mode following the mass transitions 303.1→259.1 for arachidonic acid and 311.1→267.0 for d8-arachidonic acid. The activity of the compounds was calculated based on the ratio of intensities [arachidonic acid/d8-arachidonic acid].

SMILES	pIC50
Cc1cncnc1-c1cccc(C(=O)N2CCN3C[C@@H](c4ccc(F)c(Cl)c4)OC[C@@H]3C2)c1Cl [Example 35, [(3R,9aS)-3-(3-chloro-4-fluoro-phenyl)-3,4,6,7,9,9a-hexahydro-1H-pyrazino[2,1-c][1,4]oxazin-8-yl]-[2-chloro-3-(5-methylpyrimidin-4-yl)phenyl]methanone]	5.96
Cc1cccnc1-c1cccc(C(=O)N2CCN3C[C@@H](c4ccc(F)c(Cl)c4)OC[C@@H]3C2)c1Cl [Example 37, [(3R,9aS)-3-(3-chloro-4-fluoro-phenyl)-3,4,6,7,9,9a-hexahydro-1H-pyrazino[2,1-c][1,4]oxazin-8-yl]-[2-chloro-3-(3-methyl-2-pyridyl)phenyl]methanone]	6.56
Cc1c(-c2cccc(C(=O)N3CCN4C[C@@H](c5ccc(F)c(Cl)c5)OC[C@@H]4C3)c2Cl)cnn1C [Example 39, [(3R,9aS)-3-(3-chloro-4-fluoro-phenyl)-3,4,6,7,9,9a-hexahydro-1H-pyrazino[2,1-c][1,4]oxazin-8-yl]-[2-chloro-3-(1,5-dimethylpyrazol-4-yl)phenyl]methanone]	7.30
Cc1nocc1-c1cccc(C(=O)N2CCN3C[C@@H](c4ccc(F)c(Cl)c4)OC[C@@H]3C2)c1Cl [Example 40, [(3R,9aS)-3-(3-chloro-4-fluoro-phenyl)-3,4,6,7,9,9a-hexahydro-1H-pyrazino[2,1-c][1,4]oxazin-8-yl]-[2-chloro-3-(3-methylisoxazol-4-yl)phenyl]methanone]	6.80
Cc1n[nH]c2ccc(C(=O)N3CCN4C[C@@H](c5ccc(F)c(Cl)c5)OC[C@@H]4C3)c(Cl)c12 [Example 41, [(3R,9aS)-3-(3-chloro-4-fluoro-phenyl)-3,4,6,7,9,9a-hexahydro-1H-pyrazino[2,1-c][1,4]oxazin-8-yl]-(4-chloro-3-methyl-1H-indazol-5-yl)methanone]	7.20
O=C(c1cccc(N2CC3(COC3)C2)c1Cl)N1CCN2C[C@@H](c3ccc(F)c(Cl)c3)OC[C@@H]2C1 [Example 42, [(3R,9aS)-3-(3-chloro-4-fluoro-phenyl)-3,4,6,7,9,9a-hexahydro-1H-pyrazino[2,1-c][1,4]oxazin-8-yl]-[2-chloro-3-(2-oxa-6-azaspiro[3.3]heptan-6-yl)phenyl]methanone]	7.31
COc1cccc(C(=O)N2CCN3C[C@@](O)(c4ccc(F)c(Cl)c4)OC[C@@H]3C2)c1Cl [Example 45, [(3R,9aS)-3-(3-chloro-4-fluoro-phenyl)-3-hydroxy-1,4,6,7,9,9a-hexahydropyrazino[2,1-c][1,4]oxazin-8-yl]-(2-chloro-3-methoxy-phenyl)methanone]	7.71
O=C(c1cccc(-c2c[nH]nc2F)c1Cl)N1CCN2C[C@@H](c3ccc(F)c(Cl)c3)OC[C@@H]2C1 [Example 49, [(3R,9aS)-3-(3-chloro-4-fluoro-phenyl)-3,4,6,7,9,9a-hexahydro-1H-pyrazino[2,1-c][1,4]oxazin-8-yl]-[2-chloro-3-(3-fluoro-1H-pyrazol-4-yl)phenyl]methanone]	9.00
O=C(c1cccc(-c2c[nH]nc2F)c1Cl)N1CCN2C[C@H](c3ccc(F)c(Cl)c3)OC[C@@H]2C1 [Example 50, [(3S,9aS)-3-(3-chloro-4-fluoro-phenyl)-3,4,6,7,9,9a-hexahydro-1H-pyrazino[2,1-c][1,4]oxazin-8-yl]-[2-chloro-3-(3-fluoro-1H-pyrazol-4-yl)phenyl]methanone]	6.38
O=C(c1cccc(-c2c[nH]nc2F)c1Cl)N1CCN2C[C@@](O)(c3ccc(C(F)(F)F)nc3)OC[C@@H]2C1 [Example 65, [(3R,9aS)-3-hydroxy-3-[6-(trifluoromethyl)pyridin-3-yl]-1,4,6,7,9,9a-hexahydropyrazino[2,1-c][1,4]oxazin-8-yl]-[2-chloro-3-(3-fluoro-1H-pyrazol-4-yl)phenyl]methanone]	7.86
COc1cccc(C(=O)N2CCN3C[C@@](O)(c4nc5ccccc5n4C)OC[C@@H]3C2)c1Cl [Example 71, [(3S,9aS)-3-hydroxy-3-(1-methylbenzimidazol-2-yl)-1,4,6,7,9,9a-hexahydropyrazino[2,1-c][1,4]oxazin-8-yl]-(2-chloro-3-methoxy-phenyl)methanone]	5.40
COc1cccc(C(=O)N2CCN3C[C@H](c4cc(Cl)c[nH]c4=O)OC[C@@H]3C2)c1Cl [Example 74, 3-[(3S,9aS)-8-(2-chloro-3-methoxy-benzoyl)-3,4,6,7,9,9a-hexahydro-1H-pyrazino[2,1-c][1,4]oxazin-3-yl]-5-chloro-1H-pyridin-2-one]	5.66
O=C(c1cccc(-c2cnco2)c1Cl)N1CCN2C[C@@](O)(c3ccc(F)c(Cl)c3)OC[C@@H]2C1 [Example 76, [(3R,9aS)-3-(3-chloro-4-fluoro-phenyl)-3-hydroxy-1,4,6,7,9,9a-hexahydropyrazino[2,1-c][1,4]oxazin-8-yl]-(2-chloro-3-oxazol-5-yl-phenyl)methanone]	7.81
O=C(c1cccc(-c2c[nH]nc2F)c1Cl)N1CCN2C[C@@H](c3cc(Cl)c[nH]c3=O)OC[C@@H]2C1 [Example 77, 3-[(3R,9aS)-8-[2-chloro-3-(3-fluoro-1H-pyrazol-4-yl)benzoyl]-3,4,6,7,9,9a-hexahydro-1H-pyrazino[2,1-c][1,4]oxazin-3-yl]-5-chloro-1H-pyridin-2-one]	7.33

The remaining lines, values ahead:

pIC50	SMILES
8.13	O=C(c1cccc(-c2cnc[nH]2)c1Cl)N1CCN2C[C@@H](c3ccc(F)c(Cl)c3)OC[C@@H]2C1 [Example 36, [(3R,9aS)-3-(3-chloro-4-fluoro-phenyl)-3,4,6,7,9,9a-hexahydro-1H-pyrazino[2,1-c][1,4]oxazin-8-yl]-[2-chloro-3-(1H-imidazol-5-yl)phenyl]methanone]
8.72	O=C(c1cccc(-c2cn[nH]c2)c1Cl)N1CCN2C[C@@H](c3ccc(F)c(Cl)c3)OC[C@@H]2C1 [Example 38, [(3R,9aS)-3-(3-chloro-4-fluoro-phenyl)-3,4,6,7,9,9a-hexahydro-1H-pyrazino[2,1-c][1,4]oxazin-8-yl]-[2-chloro-3-(1H-pyrazol-4-yl)phenyl]methanone]
6.92	O=C(c1cccc(N2CCOCC2)c1Cl)N1CCN2C[C@@H](c3ccc(F)c(Cl)c3)OC[C@@H]2C1 [Example 43, [(3R,9aS)-3-(3-chloro-4-fluoro-phenyl)-3,4,6,7,9,9a-hexahydro-1H-pyrazino[2,1-c][1,4]oxazin-8-yl]-(2-chloro-3-morpholino-phenyl)methanone]
7.30	O=C(c1cccc(-c2cnn[nH]2)c1Cl)N1CCN2C[C@@H](c3ccc(F)c(Cl)c3)OC[C@@H]2C1 [Example 44, [(3R,9aS)-3-(3-chloro-4-fluoro-phenyl)-3,4,6,7,9,9a-hexahydro-1H-pyrazino[2,1-c][1,4]oxazin-8-yl]-[2-chloro-3-(1H-triazol-5-yl)phenyl]methanone]
6.75	COc1cccc(C(=O)N2CCN3C[C@](O)(c4ccc(F)c(Cl)c4)OC[C@H]3C2)c1Cl [Example 46, [(3S,9aR)-3-(3-chloro-4-fluoro-phenyl)-3-hydroxy-1,4,6,7,9,9a-hexahydropyrazino[2,1-c][1,4]oxazin-8-yl]-(2-chloro-3-methoxy-phenyl)methanone]
7.29	O=C(c1cccc(-c2c[nH]nc2F)c1Cl)N1CCN2C[C@@](O)(c3ccc(OC(F)F)cc3)OC[C@@H]2C1 [Example 69, [2-chloro-3-(3-fluoro-1H-pyrazol-4-yl)phenyl]-[(3R,9aS)-3-[4-(difluoromethoxy)phenyl]-3-hydroxy-1,4,6,7,9,9a-hexahydropyrazino[2,1-c][1,4]oxazin-8-yl]methanone]
7.21	N#Cc1cc([C@@H]2CN3CCN(C(=O)c4cccc(-c5c[nH]nc5F)c4Cl)C[C@H]3CO2)ccc1F [Example 72, 5-[(3R,9aS)-8-[2-chloro-3-(3-fluoro-1H-pyrazol-4-yl)benzoyl]-3,4,6,7,9,9a-hexahydro-1H-pyrazino[2,1-c][1,4]oxazin-3-yl]-2-fluoro-benzonitrile]
6.07	COc1cccc(C(=O)N2CCN3C[C@@H](c4cc(Cl)c[nH]c4=O)OC[C@@H]3C2)c1Cl [Example 75, 3-[(3R,9aS)-8-(2-chloro-3-methoxy-benzoyl)-3,4,6,7,9,9a-hexahydro-1H-pyrazino[2,1-c][1,4]oxazin-3-yl]-5-chloro-1H-pyridin-2-one]
6.89	O=C(c1cccc(-c2c[nH]nc2F)c1F)N1CCN2C[C@@](O)(c3ccc(C(F)(F)F)nc3)OC[C@@H]2C1 [Example 78, [(3R,9aS)-3-hydroxy-3-[6-(trifluoromethyl)-3-pyridyl]-1,4,6,7,9,9a-hexahydropyrazino[2,1-c][1,4]oxazin-8-yl]-[2-fluoro-3-(3-fluoro-1H-pyrazol-4-yl)phenyl]methanone]
